From patent US5817826A, “Oxazolinone derivatives having cytosolic phospholipase A2 inhibitory activity” (Shionogi & Co., Ltd., priority 1993, dated 1998) come the findings set out here.

As a reminder, the IC50 is the concentration that inhibits the measured activity by half. A low value points to greater potency in that assay. What is called inhibition is the share of the control response that was lost under treatment.

Data set [1] is described as follows: hygroscopicity (printed with the elemental analysis). The data set is classed as physicochemical. Particulars: amorphous form.
A further data set concerns the target T1, cytosolic PLA2 (Homo sapiens, UniProt P47712).
T1 sequence (P47712 1-749): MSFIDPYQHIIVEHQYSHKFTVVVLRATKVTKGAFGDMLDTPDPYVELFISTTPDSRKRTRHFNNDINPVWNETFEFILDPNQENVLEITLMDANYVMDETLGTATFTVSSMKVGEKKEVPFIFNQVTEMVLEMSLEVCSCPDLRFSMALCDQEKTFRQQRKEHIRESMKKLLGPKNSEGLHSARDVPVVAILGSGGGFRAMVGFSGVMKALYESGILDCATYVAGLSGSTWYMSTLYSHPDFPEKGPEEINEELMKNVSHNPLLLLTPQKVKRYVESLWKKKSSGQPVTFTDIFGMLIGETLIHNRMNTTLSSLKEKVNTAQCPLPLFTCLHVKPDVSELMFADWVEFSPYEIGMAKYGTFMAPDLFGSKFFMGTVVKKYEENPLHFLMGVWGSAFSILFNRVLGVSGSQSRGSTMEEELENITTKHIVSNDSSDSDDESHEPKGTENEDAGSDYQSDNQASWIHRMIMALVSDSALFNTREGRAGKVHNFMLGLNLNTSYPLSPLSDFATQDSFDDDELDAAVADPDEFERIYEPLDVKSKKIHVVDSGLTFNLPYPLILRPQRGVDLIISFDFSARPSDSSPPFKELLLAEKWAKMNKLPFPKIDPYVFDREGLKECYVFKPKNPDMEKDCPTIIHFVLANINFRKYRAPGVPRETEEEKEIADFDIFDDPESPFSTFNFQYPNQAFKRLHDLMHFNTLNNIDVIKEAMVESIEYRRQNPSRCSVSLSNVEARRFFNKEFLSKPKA
The data set can be described thus: Cytosolic PLA2 inhibition activity (sonicated liposomes with 1-palmitoyl-2-[14C]arachidonyl-sn-glycero-3-phosphocholine). The data set is classed as biochemical. The settings on record: for IC50: 2 μM radiolabeled phosphatidylcholine liposomes, 1 mM CaCl2, pH 7.4; for inhibition at 2 µM: compound at 2 μM, relative to enzyme control. As to the method:
Taking the above matter into consideration, the compounds of the present invention were evaluated for their effect on cytosolic PLA2 activity as described in published literature [Kramer, R. M., Robers, E. F., Manetta, J. and Putanam, J. E. et al., J. Biol. Chem. 268 (8): 5268-5272, 1991]. Briefly, PLA2 activity was assayed using sonicated liposomes containing 1-palmitoyl-2-[^14 C]arachidonyl-sn-glycero-3-phosphocholine and sn-1,2-dioleoyl glycerol at a molar ratio of 2:1. The assay mixture contained 1 mM CaCl2, 2 mM 2-mercaptoethanol, 150 mM NaCl, 50 mM Hepes, pH 7.4, and 0.1 mg/ml BSA. The substrate consisted of 2 μM radiolabeled phosphatidycholine liposomes containing 1 μM dioleoyl glycerol.
The amount of released fatty acids in the reaction as mentioned above was quantitated by a liquid scintillation counter. Separately, the same assay was performed except that the compound of the present invention was not added to serve as the enzyme control. The inhibitioory activity was expressed as a percent (%) of PLA2 activity in the enzyme control, and thereby 50% inhibition concentration was calculated.

`O=C(NCCN1CCCCC1)c1[nH]c(=O)oc1-c1ccccc1` [Compound 0030] returned a hygroscopicity in data set [1] of 5 µg/min. 103 µM corresponded to half-maximal inhibition on cytosolic PLA2 (IC50).
At cytosolic PLA2, `CC(C)=CCC/C(C)=C/CC/C(C)=C/CN1C(=O)O[C@H](c2ccccc2)[C@H]1c1ccccc1` [Compound 0303] registered an IC50 of 50 µM and an inhibition at 2 µM of 18%.
On the same counts, the results for `CC(C)=CCC/C(C)=C\CN1C(=O)O[C@@H](c2ccccc2)[C@@H]1c1ccccc1` [Compound 0313] are about 50 µM and 13%.
The matching figures for `CC(C)=CCC/C(C)=C/CN1C(=O)OC[C@@H]1Cc1ccccc1` [Compound 0315]: 90 µM and 22%.
On the same counts, the results for `CC(C)=CCC/C(C)=C/CN1C(=O)O[C@@H](c2cccs2)[C@@H]1c1ccccc1` [Compound 0325] are 8.7 µM and 32%.
On cytosolic PLA2, `CC(C)=CCC[C@@H](C)CCN1C(=O)O[C@@H](c2ccccc2)[C@@H]1c1ccccc1` [Compound 0346] returned an IC50 of 3 µM and an inhibition at 2 µM of 47%.
For the compound `CC(C)=CCC[C@H](C)CCN1C(=O)O[C@@H](c2ccccc2)[C@@H]1c1ccccc1` [Compound 0347], on cytosolic PLA2, the IC50 was found to be 7.4 µM and the inhibition at 2 µM is 33%.
